Reference: US10428028B2, “HDAC inhibitors” (BIOMARIN PHARMACEUTICAL INC., priority 2013, dated 2019)
pIC50: −log10 of the molar value. Where two headings read alike, the source gives them in different places.

Key:
HDAC2 = HDAC2 (Homo sapiens (Human), UniProt Q92769); assay: HDAC enzyme inhibition assay (Fluor-de-Lys), HDAC2; type: biochemical; conditions: 2 hours pre-incubation
Method: (§1) The HDAC activity inhibition assay was performed as follows to determine the ability of a test compound to inhibit HDAC enzymatic activity. Serial dilutions of HDAC inhibitors were prepared in HDAC assay buffer (25 mM Tris/HCl, pH 8.0, 137 mM NaCl, 2.7 mM KCl, 1 mM MgCl2, pH 8) in 96-well assay plates (Fisher scientific, #07-200-309) and were pre-incubated for 2 hours at room temperature in the presence of 125 μg/ml BSA and purified HDAC1 (BPS Bioscience, San Diego, Calif., #50051), HDAC2 (BPS Bioscience, #50053), or HDAC3/NcoR2 (BPS Bioscience, #50003) at concentrations of 1.25, 1.32, and 0.167 μg/mL, respectively. Following pre-incubation, Fluor-de-Lys™ substrate (Enzo Life Sciences, Plymouth Meeting, Pa., BML-KI104-0050) was added to a final concentration of 10 μM and plates were further incubated for 30 minutes at room temperature. The enzymatic reaction was stopped by addition of Trichostatin A (Sigma-Aldrich, St Louis, Mo., #T8552, final concentration: 100 nM) and trypsin (MP Biomedicals, Solon, Ohio, #02101179) was added to reach a final concentration of 100 μg/mL. After a 15 minute incubation at room temperature, fluorescence was recorded using a Spectramax M2 fluorometer (Molecular Devices, Sunnyvale, Calif.) with excitation at 365 nm and emission at 460 nm. IC50 values were calculated by using a sigmoidal dose-response (variable slope) equation in GraphPad Prism® 5 for Windows (GraphPad Software, La Jolla, Calif.). Results for selected compounds in the HDAC activity inhibition assay are presented in Table 5 (IC50 ranges: IA>20 μM, A<1 μM, 1<B<5 μM, 5<C<10 μM, 10<D<20 μM, ND: not determined).

[1] = Hepatocyte stability and metabolism (parent remaining, acid and OPD formation); type: in vitro ADME; conditions: human hepatocytes; for % left 6H Hum hep: 5 μM; for OPD: OPD formation by LC-MS/MS after phenylglyoxal derivatisation
Method: The inventors have found, however, that formula (I) compound metabolites are substantially free of OPD when formula (I) compounds are subjected to conditions intended to mimic in vivo metabolism pathways. As used herein, the term “substantially free of OPD” means that OPD was not detected by LC-MS/MS after (i) incubating a formula (I) compound with human, monkey, dog and rat hepatocytes and (ii) treating the metabolite milieu with an acidic solution of phenylglyoxal in an organic solvent (this addition leads to quantitative formation of 2-phenylquinoxaline, which can be easily quantified with a low lower limit of quantitation (LLOQ)). See the Examples section.
To assess the stability and metabolism of RGFP compounds and to quantify the metabolites in hepatocytes. This assay was designed to evaluate the metabolism of RGFP compounds, following their incubation with human, monkey, dog and rat hepatocytes by monitoring either parent drug disappearance or metabolite appearance using LC-MS/MS. The results are shown in Table 5 ((% Left in Hep: IA<10%, 50%<A, 50%>B>30%, 30%>C>10%, ND: not determined).
Procedure: Turn on the water-bath heater to 37° C. Take out the KHB buffer and make sure it is at room temp before use. Prepare 2.5 mM concentration of RGFP compound in DMSO stock. Add 10 μL of above DMSO stock to 2490 μL KHB buffer; final concentration of RGFP compound will be 10 μM. Pre-warm 45 ml InVitro HT Medium to 37° C. in a sterile 50 ml conical tube. Add 1.0 mL Torpedo Antibiotic Mix per 45 mL InVitro HT medium. Transfer 13 mL of warm HT medium with Antibiotic Mix into a 15 mL conical tube. Carefully remove the hepatocyte vials from liquid nitrogen (liquid phase). Immediately immerse the vial into a 37° C. water bath. Shake gently until the ice melts entirely. […] Immediately empty contents of the vial into 13 ml of pre-warmed InVitro HT Medium with antibiotics. Rinse the vial with the HT media just transferred the hepatocytes to, in order to ensure complete transfer. Centrifuge the cell suspension at 600 RPM for 5 minutes at room temperature. […] Add 1.0 ml of KHB (at room temperature) buffer to the tube of hepatocyte pellet. Loosen the cell pellet by gently swirling the centrifuge tube. Transfer 100 μL of above solution to a different tube and add 900 μL of KHB buffer to count the cells. Determine the total cell count and the number of viable cells using the Trypan Blue exclusion method. Once the cell count is obtained, multiply the number by 10 (attributing to the dilution factor). Add required volume of KHB buffer to the tube containing hepatocytes such that the final count will be 2 million cells/mL. Dispense 50 μL of 2 million cells/ml to a 96 well plate and then add 50 μl of DMSO stock to respective wells (such that, the concentration of RGFP compounds is 5 μM and number of cells are 100000 in each well). Place the plates on a shaker in a 37° C. incubator with 5% CO2. Separate plates for each time point are advisable (Time points: 0 h, 1 h, 2 h, and 6 h). After each time point, add 100 μL of quenching solution. Quenching solution is an acetonitrile solution containing RGFP531 (10 μM) internal standard, 0.1% formic acid and phenylglyoxol (400 μM). The formic acid and phenylglyoxal is used for the identification and quantification of OPD as mentioned above. Pipette up and down a few times to ensure a complete stop of reaction. Transfer all the solution into a 1.5 ml tube, vortex thoroughly, and centrifuge at 14000 RPM at 4° C. for 5 minutes to precipitate cell debris. Transfer the 150 μL of supernatant to vials for analysis on LC-MS/MS.
LC-MS/MS parameters for RGFP compounds and metabolites including OPD: LC-MS/MS Parameters for API 2000 QTrap: System: HPLC 1100; Column: Gemini C18, 5 μM 4.6×50 mm; Column Temp: Ambient; MS: API 2000 QTrap (MI mode); Mobile Phase A: HPLC water with 0.05% Formic Acid; Mobile Phase B: Acetonitrile with 0.05% Formic Acid.

HDAC1 = HDAC1 (Homo sapiens (Human), UniProt Q13547); assay: HDAC enzyme inhibition assay (Fluor-de-Lys), HDAC1; type: biochemical; conditions: 2 hours pre-incubation
Sequence of HDAC1 (Q13547 whole entry): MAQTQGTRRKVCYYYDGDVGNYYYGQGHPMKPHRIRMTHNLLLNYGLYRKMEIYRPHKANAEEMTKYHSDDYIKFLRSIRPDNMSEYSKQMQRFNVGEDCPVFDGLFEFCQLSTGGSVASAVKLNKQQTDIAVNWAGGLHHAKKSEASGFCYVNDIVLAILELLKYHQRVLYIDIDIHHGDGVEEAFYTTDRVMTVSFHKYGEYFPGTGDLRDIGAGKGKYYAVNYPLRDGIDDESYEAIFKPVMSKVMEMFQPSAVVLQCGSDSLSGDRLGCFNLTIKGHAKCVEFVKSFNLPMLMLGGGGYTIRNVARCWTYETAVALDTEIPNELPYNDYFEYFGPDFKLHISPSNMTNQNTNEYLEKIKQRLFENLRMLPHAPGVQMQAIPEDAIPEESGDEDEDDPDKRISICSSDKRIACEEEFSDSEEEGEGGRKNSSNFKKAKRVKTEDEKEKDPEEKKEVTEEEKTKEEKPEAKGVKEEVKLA
Method: as §1

[2] = Brain penetration studies; type: in vivo; conditions: C57/BL6/J, mouse; mice, s.c. 5 or 50 mg/kg or i.v. 5 mg/kg; Cmax(brain)/Cmax(plasma); read-out: BPR (brain/plasma ratio)
Method: Test compounds were prepared at either 0.5 mg/ml or 5 mg/ml in 30% hydroxypropyl-β-cyclodextrin, 100 mM sodium acetate pH 5.5, 5% DMSO. C57/BL6/J mice were dosed s.c. at 5 mg/kg or 50 mg/kg, or i.v. at 5 mg/kg. Animals were euthanized at pre-dose, 5, 15, 30 min, 1, 2 and 4 hours post-dose and plasma and brain obtained. Three animals per dose per time points were used. The levels of compound in the plasma and brain were determined by standard LC/MS/MS methods. Brain/plasma ratio (BPR) was calculated as the ratio of the Cmax(brain)/Cmax(plasma). The results are shown in Table 5, where IA corresponds to a BPR less than 0.1, D is between 0.1 and 0.2, C is 0.2 to 0.5, B comprises 0.5 to 1 and A is greater than 1.

HDAC3/NcoR2 = HDAC3/NcoR2 (Homo sapiens (Human), UniProt O15379); assay: HDAC enzyme inhibition assay (Fluor-de-Lys), HDAC3/NcoR2; type: biochemical; conditions: HDAC3/NcoR2, 2 hours pre-incubation
Sequence of HDAC3/NcoR2 (O15379 whole entry): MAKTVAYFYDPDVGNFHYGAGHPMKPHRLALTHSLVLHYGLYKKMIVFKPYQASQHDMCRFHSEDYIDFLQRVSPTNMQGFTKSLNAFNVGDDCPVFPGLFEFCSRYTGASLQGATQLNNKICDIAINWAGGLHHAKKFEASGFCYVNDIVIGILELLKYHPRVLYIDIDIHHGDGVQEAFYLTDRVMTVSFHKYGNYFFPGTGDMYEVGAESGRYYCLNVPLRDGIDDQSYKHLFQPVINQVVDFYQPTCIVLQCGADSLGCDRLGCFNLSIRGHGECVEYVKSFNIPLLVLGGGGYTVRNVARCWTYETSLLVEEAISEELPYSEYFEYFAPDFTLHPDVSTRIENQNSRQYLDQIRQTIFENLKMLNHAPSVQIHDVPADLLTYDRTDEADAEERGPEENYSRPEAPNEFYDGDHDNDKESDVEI
Sequence of HDAC3/NcoR2 (Q9Y618 395-489 partner): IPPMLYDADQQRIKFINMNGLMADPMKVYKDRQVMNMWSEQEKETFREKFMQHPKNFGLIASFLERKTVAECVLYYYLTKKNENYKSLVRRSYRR
Method: as §1

[3] = Acid stability determination; type: physicochemical; conditions: 0.01 M HCl, 50° C., 100 μM
Method: A 100 μM solution of test compound was prepared by dilution of a 10 mM DMSO stock solution in a 0.01 M solution of HCl in deionized water. Immediately after mixing, an aliquot (100 μL) was sampled and analyzed by HPLC/UV. The area under the compound peak was determined and used as the time zero reference point. The remainder of the acid sample was incubated at 50° C. and samples were taken after 2, 4, and 24 hours of incubation. On a few occasions, samples were taken at 30 rather than 24 hours. These were analyzed by the same HPLC/UV method and the area of the peak corresponding to the test compound was measured. Percent remaining at a given time point was then calculated as the ratio of the area under the peak after incubation to that at time zero times 100. In those cases where a 30 hour time point was recorded, the percent remaining at 24 hours was obtained by interpolation of the percent remaining versus time curve assuming a unimolecular process, i.e. a monoexponential decay. Percent remaining after 24 hours incubation are presented in Table 5 below, where A corresponds to more than 60%, B is between 40 and 60%, C covers 20 to 40% and D means less than 20%.

[4] = parameters: dose or concentration left out as unconfirmed; conditions: male rats, oral, 78 weeks, cited from earlier work
[5] = rats, subcutaneous, cited from earlier work

Sequence of HDAC2 (Q92769 whole entry): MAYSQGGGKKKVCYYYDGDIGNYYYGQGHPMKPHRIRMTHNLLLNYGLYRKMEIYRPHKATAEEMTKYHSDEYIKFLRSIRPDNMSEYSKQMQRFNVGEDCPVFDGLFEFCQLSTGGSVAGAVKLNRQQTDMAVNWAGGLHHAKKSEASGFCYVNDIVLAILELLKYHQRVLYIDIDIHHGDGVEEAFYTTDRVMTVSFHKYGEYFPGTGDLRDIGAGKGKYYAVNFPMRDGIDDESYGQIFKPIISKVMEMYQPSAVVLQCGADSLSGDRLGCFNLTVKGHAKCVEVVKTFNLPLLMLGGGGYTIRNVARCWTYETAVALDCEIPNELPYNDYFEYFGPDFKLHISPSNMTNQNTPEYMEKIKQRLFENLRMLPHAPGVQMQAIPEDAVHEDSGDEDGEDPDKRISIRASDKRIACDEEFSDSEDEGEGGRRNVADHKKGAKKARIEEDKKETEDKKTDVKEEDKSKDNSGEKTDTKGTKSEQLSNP

pIC50 (HDAC2) | % left 6H Hum hep [1] | OPD [1] | pIC50 (HDAC1) | Kp [2] | pIC50 (HDAC3/NcoR2) | Acid Stability % Left 24 hr [3] | Structure (SMILES) | rats with liver tumors ([4]; 8000 low dose) | rats with liver tumors ([4]; 16000 high dose) | tumors ([5]; 45 mg/kg every second day for 11 months) | tumors ([5]; 90 mg/kg every second day for 5 months)
> 6.00 | C (30%>C>10%) | No OPD | > 6.00 | > 1 | > 6.00 | C (C covers 20 to 40%) | Nc1cc(F)ccc1NC(=O)c1ccc2c(cnn2Cc2ccc(F)c(F)c2)c1 [Compound A10] | – | – | – | –
> 6.00 | B (50%>B>30%) | No OPD | > 6.00 | 0.2 to 0.5 | > 6.00 | B (B is between 40 and 60%) | Nc1ccccc1NC(=O)c1ccc2c(cnn2CC2CC2)c1 [Compound A11] | – | – | – | –
– | – | – | – | – | – | – | Nc1ccccc1N [OPD, o-phenylenediamine] | 5 out of 17 | 5 out of 16 | not detected | not detected
